Source: ChEMBL document CHEMBL3044541, “Control of crown rot-causing fungal pathogens of banana by inorganic salts and a surfactant” (Crop Prot, 2007)
Active and inactive are the calls of the source. No cut-off for these calls is given here.

Assays:
[1] = tested on: Colletotrichum musae; test: Growth inhibition of Colletotrichum musae assessed as concentration required for inhibition of mycelial growth incubated for 15 min followed by compound washout measured after 7 days in presence of surfactant APSA 80; format: functional
[2] = tested on: Lasiodiplodia theobromae; test: Growth inhibition of Lasiodiplodia theobromae assessed as concentration required for inhibition of mycelial growth incubated for 15 min followed by compound washout measured after 7 days in absence of surfactant APSA 80; format: functional
[3] = tested on: Lasiodiplodia theobromae; test: Growth inhibition of Lasiodiplodia theobromae assessed as concentration required for inhibition of mycelial growth incubated for 15 min followed by compound washout measured after 7 days in presence of surfactant APSA 80; format: functional
[4] = tested on: Musa acuminata AAA Group; test: Phytotoxicity against Musa acuminata AAA Group (Cavendish banana) assessed as skin burn incubated for 15 min followed by compound washout measured after 1 to 3 weeks in presence of surfactant APSA 80 relative to control; format: organism-based; conditions: in vivo
[5] = tested on: Musa acuminata AAA Group; test: Phytotoxicity against Musa acuminata AAA Group (Cavendish banana) assessed as discoloration incubated for 15 min followed by compound washout measured after 1 to 3 weeks in presence of surfactant APSA 80 relative to control; format: organism-based; conditions: in vivo
[6] = tested on: Fusarium verticillioides; test: Antifungal activity against Fusarium verticillioides infected Cavendish banana fruit assessed as reduction in crown rot incubated for 15 min followed by compound washout measured after 3 weeks in presence of surfactant APSA 80 relative to control; format: functional; design: scale not given: the % may be the effect or the level left; conditions: pooled result: one value given for 4 cell lines, strains, targets or settings
[7] = tested on: Fusarium verticillioides; test: Antifungal activity against Fusarium verticillioides infected Cavendish banana fruit assessed as reduction in crown rot incubated for 15 min followed by compound washout measured after 3 weeks in absence of surfactant APSA 80 relative to control; format: functional; design: scale not given: the % may be the effect or the level left; conditions: pooled result: one value given for 4 cell lines, strains, targets or settings
[8] = tested on: Fusarium verticillioides; test: Antifungal activity against Fusarium verticillioides infected Cavendish banana fruit assessed as reduction in crown rot incubated for 15 min followed by compound washout measured after 2 weeks in presence of surfactant APSA 80 relative to control; format: functional; design: scale not given: the % may be the effect or the level left
[9] = tested on: Colletotrichum musae; test: Antifungal activity against Colletotrichum musae infected Cavendish banana fruit assessed as reduction in crown rot incubated for 15 min followed by compound washout measured after 2 weeks in presence of surfactant APSA 80 relative to control; format: functional; design: scale not given: the % may be the effect or the level left
[10] = tested on: Thielaviopsis paradoxa; test: Antifungal activity against Ceratocystis paradoxa infected Cavendish banana fruit assessed as reduction in crown rot incubated for 15 min followed by compound washout measured after 2 weeks in presence of surfactant APSA 80 relative to control; format: functional; design: scale not given: the % may be the effect or the level left
[11] = tested on: Lasiodiplodia theobromae; test: Antifungal activity against Lasiodiplodia theobromae infected Cavendish banana fruit assessed as reduction in crown rot incubated for 15 min followed by compound washout measured after 2 weeks in presence of surfactant APSA 80 relative to control; format: functional; design: scale not given: the % may be the effect or the level left
[12] = tested on: Fusarium verticillioides; test: Antifungal activity against Fusarium verticillioides infected Cavendish banana fruit assessed as reduction in crown rot incubated for 15 min followed by compound washout measured after 2 weeks in absence of surfactant APSA 80 relative to control; format: functional; design: scale not given: the % may be the effect or the level left
[13] = tested on: Colletotrichum musae; test: Antifungal activity against Colletotrichum musae infected Cavendish banana fruit assessed as reduction in crown rot incubated for 15 min followed by compound washout measured after 2 weeks in absence of surfactant APSA 80 relative to control; format: functional; design: scale not given: the % may be the effect or the level left
[14] = tested on: Thielaviopsis paradoxa; test: Antifungal activity against Ceratocystis paradoxa infected Cavendish banana fruit assessed as reduction in crown rot incubated for 15 min followed by compound washout measured after 2 weeks in absence of surfactant APSA 80 relative to control; format: functional; design: scale not given: the % may be the effect or the level left
[15] = tested on: Lasiodiplodia theobromae; test: Antifungal activity against Lasiodiplodia theobromae infected Cavendish banana fruit assessed as reduction in crown rot incubated for 15 min followed by compound washout measured after 2 weeks in absence of surfactant APSA 80 relative to control; format: functional; design: scale not given: the % may be the effect or the level left
[16] = tested on: Fusarium verticillioides; test: Antifungal activity against Fusarium verticillioides infected Cavendish banana fruit assessed as reduction in crown rot incubated for 15 min followed by compound washout measured after 1 week in presence of surfactant APSA 80 relative to control; format: functional; design: scale not given: the % may be the effect or the level left
[17] = tested on: Colletotrichum musae; test: Antifungal activity against Colletotrichum musae infected Cavendish banana fruit assessed as reduction in crown rot incubated for 15 min followed by compound washout measured after 1 week in presence of surfactant APSA 80 relative to control; format: functional; design: scale not given: the % may be the effect or the level left
[18] = tested on: Thielaviopsis paradoxa; test: Antifungal activity against Ceratocystis paradoxa infected Cavendish banana fruit assessed as reduction in crown rot incubated for 15 min followed by compound washout measured after 1 week in presence of surfactant APSA 80 relative to control; format: functional; design: scale not given: the % may be the effect or the level left
[19] = tested on: Lasiodiplodia theobromae; test: Antifungal activity against Lasiodiplodia theobromae infected Cavendish banana fruit assessed as reduction in crown rot incubated for 15 min followed by compound washout measured after 1 week in presence of surfactant APSA 80 relative to control; format: functional; design: scale not given: the % may be the effect or the level left
[20] = tested on: Fusarium verticillioides; test: Antifungal activity against Fusarium verticillioides infected Cavendish banana fruit assessed as reduction in crown rot incubated for 15 min followed by compound washout measured after 1 week in absence of surfactant APSA 80 relative to control; format: functional; design: scale not given: the % may be the effect or the level left
[21] = tested on: Colletotrichum musae; test: Antifungal activity against Colletotrichum musae infected Cavendish banana fruit assessed as reduction in crown rot incubated for 15 min followed by compound washout measured after 1 week in absence of surfactant APSA 80 relative to control; format: functional; design: scale not given: the % may be the effect or the level left
[22] = tested on: Thielaviopsis paradoxa; test: Antifungal activity against Ceratocystis paradoxa infected Cavendish banana fruit assessed as reduction in crown rot incubated for 15 min followed by compound washout measured after 1 week in absence of surfactant APSA 80 relative to control; format: functional; design: scale not given: the % may be the effect or the level left
[23] = tested on: Lasiodiplodia theobromae; test: Antifungal activity against Lasiodiplodia theobromae infected Cavendish banana fruit assessed as reduction in crown rot incubated for 15 min followed by compound washout measured after 1 week in absence of surfactant APSA 80 relative to control; format: functional; design: scale not given: the % may be the effect or the level left
[24] = tested on: Fusarium verticillioides; test: Antifungal activity against Fusarium verticillioides assessed as reduction in colony diameter at 10 to 160 g/l incubated for 15 min followed by compound washout measured after 7 days in absence of surfactant APSA 80 relative to control; format: functional; design: scale not given: the % may be the effect or the level left
[25] = tested on: Colletotrichum musae; test: Antifungal activity against Colletotrichum musae assessed as reduction in colony diameter at 10 to 160 g/l incubated for 15 min followed by compound washout measured after 7 days in absence of surfactant APSA 80 relative to control; format: functional; design: scale not given: the % may be the effect or the level left
[26] = tested on: Thielaviopsis paradoxa; test: Antifungal activity against Ceratocystis paradoxa assessed as reduction in colony diameter at 10 to 160 g/l incubated for 15 min followed by compound washout measured after 7 days in absence of surfactant APSA 80 relative to control; format: functional; design: scale not given: the % may be the effect or the level left
[27] = tested on: Lasiodiplodia theobromae; test: Antifungal activity against Lasiodiplodia theobromae assessed as reduction in colony diameter at 10 to 160 g/l incubated for 15 min followed by compound washout measured after 7 days in absence of surfactant APSA 80 relative to control; format: functional; design: scale not given: the % may be the effect or the level left
[28] = tested on: Fusarium verticillioides; test: Antifungal activity against Fusarium verticillioides assessed as reduction in colony diameter at 10 to 160 g/l incubated for 15 min followed by compound washout measured after 7 days in presence of surfactant APSA 80 relative to control; format: functional; design: scale not given: the % may be the effect or the level left
[29] = tested on: Colletotrichum musae; test: Antifungal activity against Colletotrichum musae assessed as reduction in colony diameter at 10 to 160 g/l incubated for 15 min followed by compound washout measured after 7 days in presence of surfactant APSA 80 relative to control; format: functional; design: scale not given: the % may be the effect or the level left
[30] = tested on: Thielaviopsis paradoxa; test: Antifungal activity against Ceratocystis paradoxa assessed as reduction in colony diameter at 10 to 160 g/l incubated for 15 min followed by compound washout measured after 7 days in presence of surfactant APSA 80 relative to control; format: functional; design: scale not given: the % may be the effect or the level left
[31] = tested on: Lasiodiplodia theobromae; test: Antifungal activity against Lasiodiplodia theobromae assessed as reduction in colony diameter at 10 to 160 g/l incubated for 15 min followed by compound washout measured after 7 days in presence of surfactant APSA 80 relative to control; format: functional; design: scale not given: the % may be the effect or the level left
[32] = tested on: Fusarium verticillioides; test: Growth inhibition of Fusarium verticillioides assessed as inhibition of mycelial growth up to 160 g/l incubated for 15 min followed by compound washout measured after 7 days in absence of surfactant APSA 80; format: functional
[33] = tested on: Colletotrichum musae; test: Growth inhibition of Colletotrichum musae assessed as inhibition of mycelial growth up to 160 g/l incubated for 15 min followed by compound washout measured after 7 days in absence of surfactant APSA 80; format: functional

## O=C([O-])[O-].[Na+].[Na+] [SODIUM CARBONATE]
[1]
  Activity: 80 g/L
[2]
  Activity: 150 g/L
[3]
  Activity: 40 g/L
[4]
  Activity: Toxic
[5]
  Activity: Toxic
[6]
  Activity: 65%
[7]
  Activity: 35%
[8]
  Activity: 25%
[9]
  Activity: 25%
[10]
  Activity: 25%
[11]
  Activity: 25%
[12]
  Activity: 0%
[13]
  Activity: 0%
[14]
  Activity: 0%
[15]
  Activity: 0%
[16]
  Activity: 0%
[17]
  Activity: 0%
[18]
  Activity: 0%
[19]
  Activity: 0%
[20]
  Activity: 0%
[21]
  Activity: 0%
[22]
  Activity: 0%
[23]
  Activity: 0%
[24]
  Activity: 29%
[25]
  Activity: 40%
[26]
  Activity: 63%
[27]
  Activity: 54%
[28]
  Activity: 75%
[29]
  Activity: 87%
[30]
  Activity: 85%
[31]
  Activity: 91%

## O=C([O-])[O-].[Na+].[Na+]
[32]
  Activity: inactive
[33]
  Activity: inactive
